Results as given in paper PMC6874179, “Development of Macrocycle Kinase Inhibitors for ALK2 Using Fibrodysplasia Ossificans Progressiva‐Derived Endothelial Cells” (JBMR Plus, 2019).

Key:
IKBKB = biological target: T1, IKBKB (Homo sapiens, UniProt O14920); experiment: Proqinase Kinase profiling; assay type: biochemical; conditions: read-out: % inhibition at 100nM
T1 construct: purchased DiscoverX

PLK3 = biological target: T2, PLK3 (Homo sapiens, UniProt Q9H4B4); experiment: Proqinase Kinase profiling; assay type: biochemical; conditions: read-out: % inhibition at 100nM
T2 construct: purchased DiscoverX

CSNK1E = biological target: T3, CSNK1E (Homo sapiens, UniProt P49674); experiment: Proqinase Kinase profiling; assay type: biochemical; conditions: read-out: % inhibition at 100nM
T3 construct: purchased DiscoverX

RPS6KA1 = biological target: T4, RPS6KA1 (Homo sapiens, UniProt Q15418); experiment: Proqinase Kinase profiling; assay type: biochemical; conditions: read-out: % inhibition at 100nM
T4 construct: purchased DiscoverX

ABL1_H396P = biological target: T5, ABL1_H396P (Homo sapiens, UniProt P00519, H396P); experiment: Proqinase Kinase profiling; assay type: biochemical; conditions: read-out: % inhibition at 100nM
T5 construct: purchased DiscoverX

CSNK2A2 = biological target: T6, CSNK2A2 (Homo sapiens, UniProt P19784); experiment: Proqinase Kinase profiling; assay type: biochemical; conditions: read-out: % inhibition at 100nM
T6 construct: purchased DiscoverX

MAPK12 = biological target: T7, MAPK12 (Homo sapiens, UniProt P53778); experiment: Proqinase Kinase profiling; assay type: biochemical; conditions: read-out: % inhibition at 100nM
T7 construct: purchased DiscoverX

TLK2 = biological target: T8, TLK2 (Homo sapiens, UniProt Q86UE8); experiment: Proqinase Kinase profiling; assay type: biochemical; conditions: read-out: % inhibition at 100nM
T8 construct: purchased DiscoverX

EGFR_L747-E749del_A750P = biological target: T9, EGFR_L747-E749del_A750P (Homo sapiens, UniProt P00533, A750P/DEL747-749); experiment: Proqinase Kinase profiling; assay type: biochemical; conditions: read-out: % inhibition at 100nM
T9 construct: purchased DiscoverX

FGFR3_G697C = biological target: T10, FGFR3_G697C (Homo sapiens, UniProt P22607, G697C); experiment: Proqinase Kinase profiling; assay type: biochemical; conditions: read-out: % inhibition at 100nM
T10 construct: purchased DiscoverX

RPS6KB2 = biological target: T11, RPS6KB2 (Homo sapiens, UniProt Q9UBS0); experiment: Proqinase Kinase profiling; assay type: biochemical; conditions: read-out: % inhibition at 100nM
T11 construct: purchased DiscoverX

SRPK3 = biological target: T12, SRPK3 (Homo sapiens, UniProt Q9UPE1); experiment: Proqinase Kinase profiling; assay type: biochemical; conditions: read-out: % inhibition at 100nM
T12 construct: purchased DiscoverX

CDC42BPB = biological target: T13, CDC42BPB (Homo sapiens, UniProt Q9Y5S2); experiment: Proqinase Kinase profiling; assay type: biochemical; conditions: read-out: % inhibition at 100nM
T13 construct: purchased DiscoverX

GRK5 = biological target: T14, GRK5 (Homo sapiens, UniProt P34947); experiment: Proqinase Kinase profiling; assay type: biochemical; conditions: read-out: % inhibition at 100nM
T14 construct: purchased DiscoverX

EIF2AK2 = biological target: T15, EIF2AK2 (Homo sapiens, UniProt P19525); experiment: Proqinase Kinase profiling; assay type: biochemical; conditions: read-out: % inhibition at 100nM
T15 construct: purchased DiscoverX

BMPR1A = biological target: T16, BMPR1A (Homo sapiens, UniProt P36894); experiment: Proqinase Kinase profiling; assay type: biochemical; conditions: read-out: % inhibition at 100nM
T16 construct: purchased DiscoverX

RIPK2 = biological target: T17, RIPK2 (Homo sapiens, UniProt O43353); experiment: Proqinase Kinase profiling; assay type: biochemical; conditions: read-out: % inhibition at 100nM
T17 construct: purchased DiscoverX

MAP3K5 = biological target: T18, MAP3K5 (Homo sapiens, UniProt Q99683); experiment: Proqinase Kinase profiling; assay type: biochemical; conditions: read-out: % inhibition at 100nM
T18 construct: purchased DiscoverX

PRKCB1_I = biological target: T19, PRKCB1_I (Homo sapiens, UniProt P05771); experiment: Proqinase Kinase profiling; assay type: biochemical; conditions: read-out: % inhibition at 100nM
T19 construct: purchased DiscoverX

STK4 = biological target: T20, STK4 (Homo sapiens, UniProt Q13043); experiment: Proqinase Kinase profiling; assay type: biochemical; conditions: read-out: % inhibition at 100nM
T20 construct: purchased DiscoverX

HCK = biological target: T21, HCK (Homo sapiens, UniProt P08631); experiment: Proqinase Kinase profiling; assay type: biochemical; conditions: read-out: % inhibition at 100nM
T21 construct: purchased DiscoverX

ROCK1 = biological target: T22, ROCK1 (Homo sapiens, UniProt Q13464); experiment: Proqinase Kinase profiling; assay type: biochemical; conditions: read-out: % inhibition at 100nM
T22 construct: purchased DiscoverX

EIF2AK1 = biological target: T23, EIF2AK1 (Homo sapiens, UniProt Q9BQI3); experiment: Proqinase Kinase profiling; assay type: biochemical; conditions: read-out: % inhibition at 100nM
T23 construct: purchased DiscoverX

GSG2 = biological target: T24, GSG2 (Homo sapiens, UniProt Q8TF76); experiment: Proqinase Kinase profiling; assay type: biochemical; conditions: read-out: % inhibition at 100nM
T24 construct: purchased DiscoverX

[1] = tested on: BMP-6-induced BRE-LUC reporter activity; experiment: BMP BRE-LUC reporter assay in KS483 cells; assay type: cell-based, mouse; conditions: BMP-6 50 ng/mL 16 hours
Experimental: Compounds were added for 16 hours at 0.5μM before luciferase activity was measured.
For luciferase reporter assays, cells were seeded in 24-well plates and transfected with DharmaFECT Duo (Fisher Scientific, Landsmeer, The Netherlands), following the recommendations of the manufacturer. 48 hours after transfection the cells were harvested and lysed. […] Each transfection mixture was equalized with empty vector when necessary and every experiment was performed in triplicate.

PRKCI = biological target: T25, PRKCI (Homo sapiens, UniProt P41743); experiment: Proqinase Kinase profiling; assay type: biochemical; conditions: read-out: % inhibition at 100nM
T25 construct: purchased DiscoverX

EPHB1 = biological target: T26, EPHB1 (Homo sapiens, UniProt P54762); experiment: Proqinase Kinase profiling; assay type: biochemical; conditions: read-out: % inhibition at 100nM
T26 construct: purchased DiscoverX

EPHA8 = biological target: T27, EPHA8 (Homo sapiens, UniProt P29322); experiment: Proqinase Kinase profiling; assay type: biochemical; conditions: read-out: % inhibition at 100nM
T27 construct: purchased DiscoverX

DAPK3 = biological target: T28, DAPK3 (Homo sapiens, UniProt O43293); experiment: Proqinase Kinase profiling; assay type: biochemical; conditions: read-out: % inhibition at 100nM
T28 construct: purchased DiscoverX

BTK = biological target: T29, BTK (Homo sapiens, UniProt Q06187); experiment: Proqinase Kinase profiling; assay type: biochemical; conditions: read-out: % inhibition at 100nM
T29 construct: purchased DiscoverX

MAP3K2 = biological target: T30, MAP3K2 (Homo sapiens, UniProt Q9Y2U5); experiment: Proqinase Kinase profiling; assay type: biochemical; conditions: read-out: % inhibition at 100nM
T30 construct: purchased DiscoverX

PDGFRB = biological target: T31, PDGFRB (Homo sapiens, UniProt P09619); experiment: Proqinase Kinase profiling; assay type: biochemical; conditions: read-out: % inhibition at 100nM
T31 construct: purchased DiscoverX

PAK6 = biological target: T32, PAK6 (Homo sapiens, UniProt Q9NQU5); experiment: Proqinase Kinase profiling; assay type: biochemical; conditions: read-out: % inhibition at 100nM
T32 construct: purchased DiscoverX

PDGFRA = biological target: T33, PDGFRA (Homo sapiens, UniProt P16234); experiment: Proqinase Kinase profiling; assay type: biochemical; conditions: read-out: % inhibition at 100nM
T33 construct: purchased DiscoverX

EPHA3 = biological target: T34, EPHA3 (Homo sapiens, UniProt P29320); experiment: Proqinase Kinase profiling; assay type: biochemical; conditions: read-out: % inhibition at 100nM
T34 construct: purchased DiscoverX

PKN2 = biological target: T35, PKN2 (Homo sapiens, UniProt Q16513); experiment: Proqinase Kinase profiling; assay type: biochemical; conditions: read-out: % inhibition at 100nM
T35 construct: purchased DiscoverX

HIPK1 = biological target: T36, HIPK1 (Homo sapiens, UniProt Q86Z02); experiment: Proqinase Kinase profiling; assay type: biochemical; conditions: read-out: % inhibition at 100nM
T36 construct: purchased DiscoverX

DSTYK = biological target: T37, DSTYK (Homo sapiens, UniProt Q6XUX3); experiment: Proqinase Kinase profiling; assay type: biochemical; conditions: read-out: % inhibition at 100nM
T37 construct: purchased DiscoverX

PRKX = biological target: T38, PRKX (Homo sapiens, UniProt P51817); experiment: Proqinase Kinase profiling; assay type: biochemical; conditions: read-out: % inhibition at 100nM
T38 construct: purchased DiscoverX

CAMKK2 = biological target: T39, CAMKK2 (Homo sapiens, UniProt Q96RR4); experiment: Proqinase Kinase profiling; assay type: biochemical; conditions: read-out: % inhibition at 100nM
T39 construct: purchased DiscoverX

AURKA = biological target: T40, AURKA (Homo sapiens, UniProt O14965); experiment: Proqinase Kinase profiling; assay type: biochemical; conditions: read-out: % inhibition at 100nM
T40 construct: purchased DiscoverX

T7 sequence (P53778 whole entry): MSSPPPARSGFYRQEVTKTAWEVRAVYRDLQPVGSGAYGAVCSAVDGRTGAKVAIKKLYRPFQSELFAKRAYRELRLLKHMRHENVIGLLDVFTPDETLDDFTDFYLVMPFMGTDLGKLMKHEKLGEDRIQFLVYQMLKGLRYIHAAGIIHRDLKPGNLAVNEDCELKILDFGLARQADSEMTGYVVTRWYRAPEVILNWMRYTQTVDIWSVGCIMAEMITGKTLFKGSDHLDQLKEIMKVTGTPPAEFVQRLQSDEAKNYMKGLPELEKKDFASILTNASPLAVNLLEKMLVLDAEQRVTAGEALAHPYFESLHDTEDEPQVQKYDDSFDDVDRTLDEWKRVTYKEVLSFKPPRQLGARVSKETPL
T37 sequence (Q6XUX3 whole entry): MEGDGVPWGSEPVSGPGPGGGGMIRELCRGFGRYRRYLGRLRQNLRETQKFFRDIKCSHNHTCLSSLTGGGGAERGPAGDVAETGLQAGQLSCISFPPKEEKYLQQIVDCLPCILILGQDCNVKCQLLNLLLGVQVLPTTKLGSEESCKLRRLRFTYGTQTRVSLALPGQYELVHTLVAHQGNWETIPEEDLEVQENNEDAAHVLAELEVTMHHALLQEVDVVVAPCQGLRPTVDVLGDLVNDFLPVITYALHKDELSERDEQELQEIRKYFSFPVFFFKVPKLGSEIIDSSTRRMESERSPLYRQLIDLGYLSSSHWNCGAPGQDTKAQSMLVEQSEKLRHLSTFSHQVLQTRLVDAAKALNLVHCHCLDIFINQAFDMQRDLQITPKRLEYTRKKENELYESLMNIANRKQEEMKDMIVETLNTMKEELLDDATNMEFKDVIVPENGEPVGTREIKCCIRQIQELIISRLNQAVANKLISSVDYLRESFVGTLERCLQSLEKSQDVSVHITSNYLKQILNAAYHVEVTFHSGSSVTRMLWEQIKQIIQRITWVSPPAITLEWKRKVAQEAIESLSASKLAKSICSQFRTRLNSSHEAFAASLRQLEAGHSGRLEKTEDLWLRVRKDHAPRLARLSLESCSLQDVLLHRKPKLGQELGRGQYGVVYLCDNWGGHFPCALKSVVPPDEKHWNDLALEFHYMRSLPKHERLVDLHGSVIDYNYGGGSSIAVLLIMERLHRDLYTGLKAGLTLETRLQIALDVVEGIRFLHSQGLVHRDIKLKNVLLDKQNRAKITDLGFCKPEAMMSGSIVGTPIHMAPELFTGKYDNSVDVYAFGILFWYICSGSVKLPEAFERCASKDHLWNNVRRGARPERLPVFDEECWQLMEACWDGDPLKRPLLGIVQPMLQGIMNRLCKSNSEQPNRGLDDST
T20 sequence (Q13043 whole entry): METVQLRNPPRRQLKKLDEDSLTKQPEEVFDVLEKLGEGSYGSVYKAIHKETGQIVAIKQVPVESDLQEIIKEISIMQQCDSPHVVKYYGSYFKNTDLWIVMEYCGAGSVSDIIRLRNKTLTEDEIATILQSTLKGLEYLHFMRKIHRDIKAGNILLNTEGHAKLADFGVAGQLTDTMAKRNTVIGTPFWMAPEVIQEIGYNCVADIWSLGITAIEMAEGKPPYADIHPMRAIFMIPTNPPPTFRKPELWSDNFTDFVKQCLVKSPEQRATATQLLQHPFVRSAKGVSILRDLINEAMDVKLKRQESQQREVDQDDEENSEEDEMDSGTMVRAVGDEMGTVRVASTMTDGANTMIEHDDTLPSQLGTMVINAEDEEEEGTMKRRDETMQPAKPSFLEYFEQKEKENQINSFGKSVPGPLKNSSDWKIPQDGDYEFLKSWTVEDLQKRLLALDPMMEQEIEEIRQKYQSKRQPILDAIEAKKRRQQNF
T21 sequence (P08631 whole entry): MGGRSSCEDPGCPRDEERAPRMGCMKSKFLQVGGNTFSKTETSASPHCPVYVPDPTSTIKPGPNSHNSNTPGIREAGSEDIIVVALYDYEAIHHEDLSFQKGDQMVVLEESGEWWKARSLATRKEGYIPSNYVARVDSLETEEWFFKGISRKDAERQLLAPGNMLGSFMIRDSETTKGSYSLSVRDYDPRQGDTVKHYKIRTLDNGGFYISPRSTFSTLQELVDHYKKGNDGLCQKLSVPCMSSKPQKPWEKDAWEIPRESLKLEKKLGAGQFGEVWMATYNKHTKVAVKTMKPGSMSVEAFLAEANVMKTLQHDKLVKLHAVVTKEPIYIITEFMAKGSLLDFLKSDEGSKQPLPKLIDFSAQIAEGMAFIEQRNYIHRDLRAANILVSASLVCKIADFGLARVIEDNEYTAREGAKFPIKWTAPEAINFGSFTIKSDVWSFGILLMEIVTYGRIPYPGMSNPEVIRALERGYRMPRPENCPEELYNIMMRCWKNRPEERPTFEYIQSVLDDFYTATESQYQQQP
T39 sequence (Q96RR4 whole entry): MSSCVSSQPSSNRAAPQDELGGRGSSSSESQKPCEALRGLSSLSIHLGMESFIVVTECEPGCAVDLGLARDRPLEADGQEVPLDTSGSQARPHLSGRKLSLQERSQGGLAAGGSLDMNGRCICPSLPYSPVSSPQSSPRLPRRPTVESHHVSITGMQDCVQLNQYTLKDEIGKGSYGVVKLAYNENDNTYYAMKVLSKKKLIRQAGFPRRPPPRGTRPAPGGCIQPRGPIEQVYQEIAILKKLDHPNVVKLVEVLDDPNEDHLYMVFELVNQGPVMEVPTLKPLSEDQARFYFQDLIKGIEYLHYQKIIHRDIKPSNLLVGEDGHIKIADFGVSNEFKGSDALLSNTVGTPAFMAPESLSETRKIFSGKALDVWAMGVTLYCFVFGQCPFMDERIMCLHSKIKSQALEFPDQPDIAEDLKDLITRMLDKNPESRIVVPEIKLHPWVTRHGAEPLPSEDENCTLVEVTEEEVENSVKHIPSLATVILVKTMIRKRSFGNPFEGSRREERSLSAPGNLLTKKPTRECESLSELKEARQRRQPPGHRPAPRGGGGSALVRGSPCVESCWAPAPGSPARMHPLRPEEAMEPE
T30 sequence (Q9Y2U5 whole entry): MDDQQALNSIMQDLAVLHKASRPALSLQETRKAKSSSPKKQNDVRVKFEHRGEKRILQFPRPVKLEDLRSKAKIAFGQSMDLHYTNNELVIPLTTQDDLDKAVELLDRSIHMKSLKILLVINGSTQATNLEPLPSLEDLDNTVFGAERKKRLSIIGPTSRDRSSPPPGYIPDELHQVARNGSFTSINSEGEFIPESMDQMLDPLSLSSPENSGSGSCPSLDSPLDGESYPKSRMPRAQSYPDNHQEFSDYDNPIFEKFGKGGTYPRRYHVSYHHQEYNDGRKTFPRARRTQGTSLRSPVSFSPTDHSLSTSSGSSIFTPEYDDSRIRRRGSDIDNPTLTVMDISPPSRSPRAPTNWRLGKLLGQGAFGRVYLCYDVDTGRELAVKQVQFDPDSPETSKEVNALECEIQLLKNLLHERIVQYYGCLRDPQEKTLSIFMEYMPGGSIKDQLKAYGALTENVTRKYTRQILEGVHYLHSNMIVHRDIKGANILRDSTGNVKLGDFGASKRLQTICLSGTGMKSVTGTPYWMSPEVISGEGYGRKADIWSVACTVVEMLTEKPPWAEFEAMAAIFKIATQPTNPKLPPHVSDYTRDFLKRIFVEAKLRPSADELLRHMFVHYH
T4 sequence (Q15418 whole entry): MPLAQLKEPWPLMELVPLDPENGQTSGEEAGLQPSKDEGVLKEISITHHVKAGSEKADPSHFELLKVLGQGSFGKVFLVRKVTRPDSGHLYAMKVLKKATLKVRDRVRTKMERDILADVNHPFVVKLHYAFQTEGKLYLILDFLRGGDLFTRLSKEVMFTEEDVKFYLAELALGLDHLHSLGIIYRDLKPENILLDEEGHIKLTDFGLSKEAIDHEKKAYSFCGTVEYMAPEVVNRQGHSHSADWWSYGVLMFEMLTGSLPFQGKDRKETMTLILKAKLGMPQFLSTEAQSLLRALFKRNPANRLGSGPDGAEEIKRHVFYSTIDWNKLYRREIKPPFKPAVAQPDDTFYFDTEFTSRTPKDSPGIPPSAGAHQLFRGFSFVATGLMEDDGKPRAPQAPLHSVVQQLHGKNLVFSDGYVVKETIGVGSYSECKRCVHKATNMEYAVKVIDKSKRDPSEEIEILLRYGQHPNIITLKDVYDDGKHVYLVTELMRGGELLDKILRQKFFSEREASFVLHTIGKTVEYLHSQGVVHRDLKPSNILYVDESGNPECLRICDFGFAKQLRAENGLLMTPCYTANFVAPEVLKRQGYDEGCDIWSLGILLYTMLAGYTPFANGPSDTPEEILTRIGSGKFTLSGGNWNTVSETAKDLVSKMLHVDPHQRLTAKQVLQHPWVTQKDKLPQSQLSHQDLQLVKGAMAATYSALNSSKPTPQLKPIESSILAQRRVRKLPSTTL
T14 sequence (P34947 whole entry): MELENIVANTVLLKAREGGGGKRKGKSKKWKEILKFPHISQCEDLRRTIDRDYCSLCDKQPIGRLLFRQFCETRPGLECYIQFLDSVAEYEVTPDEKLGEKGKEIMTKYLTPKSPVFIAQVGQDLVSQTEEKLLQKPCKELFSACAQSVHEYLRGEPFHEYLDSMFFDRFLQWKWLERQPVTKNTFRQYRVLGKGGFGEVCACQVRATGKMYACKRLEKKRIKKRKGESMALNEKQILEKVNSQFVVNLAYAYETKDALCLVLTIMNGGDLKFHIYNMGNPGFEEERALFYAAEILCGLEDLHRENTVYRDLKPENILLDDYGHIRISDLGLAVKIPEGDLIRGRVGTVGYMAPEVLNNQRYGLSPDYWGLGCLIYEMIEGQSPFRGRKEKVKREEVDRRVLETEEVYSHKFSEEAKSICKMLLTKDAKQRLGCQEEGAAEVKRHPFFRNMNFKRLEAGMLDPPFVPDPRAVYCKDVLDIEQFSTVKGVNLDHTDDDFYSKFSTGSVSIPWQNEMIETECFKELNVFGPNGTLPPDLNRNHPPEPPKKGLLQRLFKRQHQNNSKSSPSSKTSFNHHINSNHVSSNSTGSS

Clc1cc2cc(c1)-c1cnn3ccc(nc13)NCCOCCO2 [OD36]
inhibition at 0.1 µM (IKBKB): 1%
inhibition at 0.1 µM (PLK3): -4%
inhibition at 0.1 µM (CSNK1E): 6%
inhibition at 0.1 µM (RPS6KA1): 9%
inhibition at 0.1 µM (ABL1_H396P): 21%
inhibition at 0.1 µM (CSNK2A2): 8%
inhibition at 0.1 µM (MAPK12): 24%
inhibition at 0.1 µM (TLK2): 31%
inhibition at 0.1 µM (EGFR_L747-E749del_A750P): 2%
inhibition at 0.1 µM (FGFR3_G697C): -1%
inhibition at 0.1 µM (RPS6KB2): 11%
inhibition at 0.1 µM (SRPK3): 9%
inhibition at 0.1 µM (CDC42BPB): 7%
inhibition at 0.1 µM (GRK5): 1%
inhibition at 0.1 µM (EIF2AK2): 9%
inhibition at 0.1 µM (BMPR1A): 9%
inhibition at 0.1 µM (RIPK2): 97%
inhibition at 0.1 µM (MAP3K5): 13%
inhibition at 0.1 µM (PRKCB1_I): 7%
inhibition at 0.1 µM (STK4): 11%
inhibition at 0.1 µM (HCK): 29%
inhibition at 0.1 µM (ROCK1): 1%
inhibition at 0.1 µM (EIF2AK1): -4%
inhibition at 0.1 µM (GSG2): 50%
Inhibition of BMP-6-stimulated BRE-LUC reporter activity [1]: in the submicromolar range
inhibition at 0.1 µM (PRKCI): 11%
inhibition at 0.1 µM (EPHB1): -2%
inhibition at 0.1 µM (EPHA8): 11%
inhibition at 0.1 µM (DAPK3): 16%
inhibition at 0.1 µM (BTK): 3%
inhibition at 0.1 µM (MAP3K2): 7%
inhibition at 0.1 µM (PDGFRB): 57%
inhibition at 0.1 µM (PAK6): 1%
inhibition at 0.1 µM (PDGFRA): 29%
inhibition at 0.1 µM (EPHA3): 12%
inhibition at 0.1 µM (PKN2): 8%
inhibition at 0.1 µM (HIPK1): 8%
inhibition at 0.1 µM (DSTYK): 3%
inhibition at 0.1 µM (PRKX): 17%
inhibition at 0.1 µM (CAMKK2): 3%
inhibition at 0.1 µM (AURKA): -7%

Cc1cc2cc(c1)-c1cnn3ccc(nc13)NCCNC(=O)CCN(C)C2 [OD52]
inhibition at 0.1 µM (IKBKB): -3%
inhibition at 0.1 µM (PLK3): -8%
inhibition at 0.1 µM (CSNK1E): 20%
inhibition at 0.1 µM (RPS6KA1): 10%
inhibition at 0.1 µM (ABL1_H396P): -12%
inhibition at 0.1 µM (CSNK2A2): 5%
inhibition at 0.1 µM (MAPK12): -10%
inhibition at 0.1 µM (TLK2): -5%
inhibition at 0.1 µM (EGFR_L747-E749del_A750P): -9%
inhibition at 0.1 µM (FGFR3_G697C): -10%
inhibition at 0.1 µM (RPS6KB2): 4%
inhibition at 0.1 µM (SRPK3): -5%
inhibition at 0.1 µM (CDC42BPB): 11%
inhibition at 0.1 µM (GRK5): 2%
inhibition at 0.1 µM (EIF2AK2): -1%
inhibition at 0.1 µM (BMPR1A): -7%
inhibition at 0.1 µM (RIPK2): 61%
inhibition at 0.1 µM (MAP3K5): -12%
inhibition at 0.1 µM (PRKCB1_I): -5%
inhibition at 0.1 µM (STK4): 8%
inhibition at 0.1 µM (HCK): 0%
inhibition at 0.1 µM (ROCK1): 1%
inhibition at 0.1 µM (EIF2AK1): 2%
inhibition at 0.1 µM (GSG2): 20%
Inhibition of BMP-6-stimulated BRE-LUC reporter activity [1]: in the submicromolar range
inhibition at 0.1 µM (PRKCI): -17%
inhibition at 0.1 µM (EPHB1): -26%
inhibition at 0.1 µM (EPHA8): -6%
inhibition at 0.1 µM (DAPK3): 11%
inhibition at 0.1 µM (BTK): -2%
inhibition at 0.1 µM (MAP3K2): 14%
inhibition at 0.1 µM (PDGFRB): 3%
inhibition at 0.1 µM (PAK6): 4%
inhibition at 0.1 µM (PDGFRA): -12%
inhibition at 0.1 µM (EPHA3): -20%
inhibition at 0.1 µM (PKN2): -3%
inhibition at 0.1 µM (HIPK1): 0%
inhibition at 0.1 µM (DSTYK): -1%
inhibition at 0.1 µM (PRKX): 34%
inhibition at 0.1 µM (CAMKK2): 2%
inhibition at 0.1 µM (AURKA): -6%
